Read-outs that look alike come from different tables or passages of the source.
Tests used:
[1] = target: GST-RIPK2 fusion protein (human RIPK2 amino acids 1-310) (Homo sapiens (Human), UniProt O43353); test: RIPK2 binding competition assay (TR-FRET, Tracer 199)
[2] = system: NF-κB pathway (SEAP) in THP1-Dual cells; test: THP-1 Dual cell SEAP assay (L18-MDP stimulated); assay type: cell-based; conditions: Homo sapiens, THP1-Dual, read-out: NFkB THP1 IC50
[3] = read-out: RIPK2 IC50, RIPK2 binding competition assay

Chain of GST-RIPK2 fusion protein (human RIPK2 amino acids 1-310) (O43353 1-310): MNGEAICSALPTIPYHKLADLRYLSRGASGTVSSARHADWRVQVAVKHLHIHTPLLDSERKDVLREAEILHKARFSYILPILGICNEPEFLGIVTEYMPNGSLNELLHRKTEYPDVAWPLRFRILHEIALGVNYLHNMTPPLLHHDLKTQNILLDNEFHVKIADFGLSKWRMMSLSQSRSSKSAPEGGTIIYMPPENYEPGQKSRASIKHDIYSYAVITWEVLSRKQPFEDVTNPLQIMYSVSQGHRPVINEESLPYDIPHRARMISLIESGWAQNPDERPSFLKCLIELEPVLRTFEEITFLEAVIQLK

Row | Compound | IC50 [1, 3] | IC50 [2] | IC50 [1]
1 | COc1cc2ncc(-c3ccc(N)c(OC)c3F)n2cc1S(=O)(=O)C(C)(C)C [Example 76, 4-(6-(tert-butylsulfonyl)-7-methoxyimidazo[1,2-a]pyridin-3-yl)-3-fluoro-2-methoxyaniline] | > 0.02 µM | > 1 µM | –
2 | COc1cc2ncc(-c3ccc(N(C)C)nc3F)n2cc1S(=O)(=O)C(C)(C)C [Example 77, 5-(6-(tert-butylsulfonyl)-7-methoxyimidazo[1,2-a]pyridin-3-yl)-6-fluoro-N,N-dimethylpyridin-2-amine] | > 0.02 µM | > 1 µM | –
3 | COc1cc(N)ncc1-c1cnc2cc(OC)c(S(=O)(=O)C(C)(C)C)cn12 [Example 78, 5-(6-(tert-butylsulfonyl)-7-methoxyimidazo[1,2-a]pyridin-3-yl)-4-methoxypyridin-2-amine] | > 0.02 µM | > 1 µM | –
4 | COc1cc2ncc(-c3ccc(N)nc3OC)n2cc1S(=O)(=O)C(C)(C)C [Example 79, 5-(6-(tert-butylsulfonyl)-7-methoxyimidazo[1,2-a]pyridin-3-yl)-6-methoxypyridin-2-amine] | > 0.02 µM | > 1 µM | –
5 | COc1cc2ncc(-c3cc(C#N)c(N)cc3F)n2cc1S(=O)(=O)C(C)(C)C [Example 80, 2-amino-5-(6-(tert-butylsulfonyl)-7-methoxyimidazo[1,2-a]pyridin-3-yl)-4-fluorobenzonitrile] | – | 0.25 to 1 µM | 0.0025 to 0.02 µM
6 | COc1cc2ncc(-c3cc(F)c(N)cc3F)n2cc1S(=O)(=O)C(C)(C)C [Example 81, 4-(6-(tert-butylsulfonyl)-7-methoxyimidazo[1,2-a]pyridin-3-yl)-2,5-difluoroaniline] | – | 0.25 to 1 µM | 0.0025 to 0.02 µM
7 | COc1cc2ncc(-c3cc(F)c(N)nc3F)n2cc1S(=O)(=O)C(C)(C)C [Example 82, 5-(6-(tert-butylsulfonyl)-7-methoxyimidazo[1,2-a]pyridin-3-yl)-3,6-difluoropyridin-2-amine] | – | 0.25 to 1 µM | 0.0025 to 0.02 µM
8 | COc1cc2ncc(-c3ccc(N)c(F)c3F)n2cc1S(=O)(=O)C(C)(C)C [Example 83, 4-(6-(tert-butylsulfonyl)-7-methoxyimidazo[1,2-a]pyridin-3-yl)-2,3-difluoroaniline] | > 0.02 µM | > 1 µM | –
9 | COc1cc2ncc(-c3cnc(N)c(C4CC4)c3)n2cc1S(=O)(=O)C(C)(C)C [Example 84, 5-(6-(tert-butylsulfonyl)-7-methoxyimidazo[1,2-a]pyridin-3-yl)-3-cyclopropylpyridin-2-amine] | > 0.02 µM | > 1 µM | –
10 | COc1cc2ncc(-c3ccc(N)c(Cl)c3)n2cc1S(=O)(=O)C(C)(C)C [Example 85, 4-(6-(tert-butylsulfonyl)-7-methoxyimidazo[1,2-a]pyridin-3-yl)-2-chloroaniline] | – | 0.25 to 1 µM | 0.0025 to 0.02 µM
11 | COc1cc2ncc(-c3ccc(N)c(Cl)c3F)n2cc1S(=O)(=O)C(C)(C)C [Example 86, 4-(6-(tert-butylsulfonyl)-7-methoxyimidazo[1,2-a]pyridin-3-yl)-2-chloro-3-fluoroaniline] | – | > 1 µM | 0.0025 to 0.02 µM
12 | COc1cc(-c2cnc3cc(OC)c(S(=O)(=O)C(C)(C)C)cn23)ccc1N [Example 87, 4-(6-(tert-butylsulfonyl)-7-methoxyimidazo[1,2-a]pyridin-3-yl)-2-methoxyaniline] | – | > 1 µM | 0.0025 to 0.02 µM
13 | COc1cc2ncc(-c3cnc(N)c(OC(F)(F)F)c3)n2cc1S(=O)(=O)C(C)(C)C [Example 88, 5-(6-(tert-butylsulfonyl)-7-methoxyimidazo[1,2-a]pyridin-3-yl)-3-(trifluoromethoxy) pyridin-2-amine] | > 0.02 µM | > 1 µM | –
14 | COc1cc2ncc(-c3ccc(N)c(OC(F)(F)F)c3)n2cc1S(=O)(=O)C(C)(C)C [Example 89, 4-(6-(tert-butylsulfonyl)-7-methoxyimidazo[1,2-a]pyridin-3-yl)-2-(trifluoromethoxy)aniline] | – | > 1 µM | 0.0025 to 0.02 µM
15 | COc1cc(-c2cnc3cc(OC)c(S(=O)(=O)C(C)(C)C)cn23)c(F)cc1N [Example 90, 4-(6-(tert-butylsulfonyl)-7-methoxyimidazo[1,2-a]pyridin-3-yl)-5-fluoro-2-methoxyaniline] | – | 0.25 to 1 µM | 0.0025 to 0.02 µM
16 | COc1cc2ncc(-c3ccc(N)c(C#N)c3F)n2cc1S(=O)(=O)C(C)(C)C [Example 91, 6-amino-3-(6-(tert-butylsulfonyl)-7-methoxyimidazo[1,2-a]pyridin-3-yl)-2-fluorobenzonitrile] | – | > 1 µM | 0.0025 to 0.02 µM
17 | COc1cc2ncc(-c3cnc(N)c(CO)c3)n2cc1S(=O)(=O)C(C)(C)C [Example 92, (2-amino-5-(6-(tert-butylsulfonyl)-7-methoxyimidazo[1,2-a]pyridin-3-yl)pyridin-3-yl)methanol] | > 0.02 µM | > 1 µM | –
18 | COc1cc2ncc(-c3cnc(N)nc3)n2cc1S(=O)(=O)C(C)(C)C [Example 93, 5-(6-(tert-butylsulfonyl)-7-methoxyimidazo[1,2-a]pyridin-3-yl)pyrimidin-2-amine] | > 0.02 µM | > 1 µM | –

Row | Compound | IC50 [1, 3] | IC50 [2] | IC50 [1]
19 | CNc1ncc(-c2cnc3cc(OC)c(S(=O)(=O)C(C)(C)C)cn23)cc1F [Example 94, 5-(6-(tert-butylsulfonyl)-7-methoxyimidazo[1,2-a]pyridin-3-yl)-3-fluoro-N-methylpyridin-2-amine] | > 0.02 µM | > 1 µM | –
20 | COc1cn2ncc(-c3ccc(N)c(C#N)c3)c2cc1S(=O)(=O)C(C)(C)C [Example 95, 2-amino-5-(5-(tert-butylsulfonyl)-6-methoxypyrazolo[1,5-a]pyridin-3-yl)benzonitrile] | – | 0.25 to 1 µM | 0.0025 to 0.02 µM
21 | COc1cc2ncc(-c3cc(C)c(N)nc3F)n2cc1S(=O)(=O)C(C)(C)C [Example 96, 5-(6-(tert-butylsulfonyl)-7-methoxyimidazo[1,2-a]pyridin-3-yl)-6-fluoro-3-methylpyridin-2-amine] | – | 0.25 to 1 µM | 0.0025 to 0.02 µM
22 | COc1cn2ncc(-c3cnc(N)c(F)c3)c2cc1S(=O)(=O)C(C)(C)C [Example 97, 5-(5-(tert-butylsulfonyl)-6-methoxypyrazolo[1,5-a]pyridin-3-yl)-3-fluoropyridin-2-amine] | – | 0.25 to 1 µM | 0.0025 to 0.02 µM
23 | COc1cc2ncc(-c3cnc(N)c(C(F)F)c3)n2cc1S(=O)(=O)C(C)(C)C [Example 98, 5-(6-(tert-butylsulfonyl)-7-methoxyimidazo[1,2-a]pyridin-3-yl)-3-(difluoromethyl)pyridin-2-amine] | > 0.02 µM | > 1 µM | –
24 | COc1cc2ncc(-c3ccc(N)nc3Cl)n2cc1S(=O)(=O)C(C)(C)C [Example 99, 5-(6-(tert-butylsulfonyl)-7-methoxyimidazo[1,2-a]pyridin-3-yl)-6-chloropyridin-2-amine] | > 0.02 µM | > 1 µM | –
25 | COc1cn2ncc(-c3cc(F)c(N)nc3F)c2cc1S(=O)(=O)C(C)(C)C [Example 100, 5-(5-(tert-butylsulfonyl)-6-methoxypyrazolo[1,5-a]pyridin-3-yl)-3,6-difluoropyridin-2-amine] | – | 0.25 to 1 µM | 0.0025 to 0.02 µM
26 | COc1cc2ncc(-c3ccc(N4CCOCC4)nc3F)n2cc1S(=O)(=O)C(C)(C)C [Example 101, 4-(5-(6-(tert-butylsulfonyl)-7-methoxyimidazo[1,2-a]pyridin-3-yl)-6-fluoropyridin-2-yl)morpholine] | > 0.02 µM | > 1 µM | –
27 | COc1cc2ncc(-c3cc(Cl)c(N)nc3OC)n2cc1S(=O)(=O)C(C)(C)C [Example 102, 5-(6-(tert-butylsulfonyl)-7-methoxyimidazo[1,2-a]pyridin-3-yl)-3-chloro-6-methoxypyridin-2-amine] | – | 0.25 to 1 µM | 0.0025 to 0.02 µM
28 | COc1cc2ncc(-c3cnc(N)cn3)n2cc1S(=O)(=O)C(C)(C)C [Example 103, 5-(6-(tert-butylsulfonyl)-7-methoxyimidazo[1,2-a]pyridin-3-yl)pyrazin-2-amine] | > 0.02 µM | > 1 µM | –
29 | COc1cn2ncc(-c3cc(OC)c(N)nc3F)c2cc1S(=O)(=O)C(C)(C)C [Example 104, 5-(5-(tert-butylsulfonyl)-6-methoxypyrazolo[1,5-a]pyridin-3-yl)-6-fluoro-3-methoxypyridin-2-amine] | – | > 1 µM | 0.0025 to 0.02 µM
30 | COc1cn2ncc(-c3cc(Cl)c(N)nc3F)c2cc1S(=O)(=O)C(C)(C)C [Example 105, 5-(5-(tert-butylsulfonyl)-6-methoxypyrazolo[1,5-a]pyridin-3-yl)-3-chloro-6-fluoropyridin-2-amine] | – | 0.05 to 0.25 µM | 0.0025 to 0.02 µM
31 | COc1cc2ncc(-c3cc(F)c(N)nc3OC)n2cc1S(=O)(=O)C(C)(C)C [Example 106, 5-(6-(tert-butylsulfonyl)-7-methoxyimidazo[1,2-a]pyridin-3-yl)-3-fluoro-6-methoxypyridin-2-amine] | – | 0.25 to 1 µM | 0.0025 to 0.02 µM
32 | COc1cc2ncc(-c3cc(C#N)c(N)nc3F)n2cc1S(=O)(=O)C(C)(C)C [Example 107, 2-amino-5-(6-(tert-butylsulfonyl)-7-methoxyimidazo[1,2-a]pyridin-3-yl)-6-fluoronicotinonitrile] | – | > 1 µM | 0.0025 to 0.02 µM
33 | COc1cc2ncc(-c3ccc(N)nc3C#N)n2cc1S(=O)(=O)C(C)(C)C [Example 108, 6-amino-3-(6-(tert-butylsulfonyl)-7-methoxyimidazo[1,2-a]pyridin-3-yl)picolinonitrile] | > 0.02 µM | > 1 µM | –
34 | COc1cc2ncc(-c3cnc(N)c(C)n3)n2cc1S(=O)(=O)C(C)(C)C [Example 109, 5-(6-(tert-butylsulfonyl)-7-methoxyimidazo[1,2-a]pyridin-3-yl)-3-methylpyrazin-2-amine] | > 0.02 µM | > 1 µM | –
35 | COc1cn2ncc(-c3cc(C#N)c(N)nc3F)c2cc1S(=O)(=O)C(C)(C)C [Example 110, 2-amino-5-(5-(tert-butylsulfonyl)-6-methoxypyrazolo[1,5-a]pyridin-3-yl)-6-fluoronicotinonitrile] | – | > 1 µM | 0.0025 to 0.02 µM
